Test results published in US9580413B2, “Substituted pyrrolidines as ROS tyrosine kinase inhibitors” (NIPPON SHINYAKU CO., LTD., priority 2012, dated 2017).

What was measured:
JAK2 tyrosine kinase = biological target: T1, JAK2 tyrosine kinase (Homo sapiens, UniProt O60674); assay: JAK2 tyrosine kinase inhibitory activity test (ELISA); format: biochemical, humans; conditions: 25 μM ATP substrate solution, 30° C., one hour
T1 construct: purchased Carna Biosciences, Inc
Experimental: (§1) 1. Preparation of Test Substance:
(§2) A test substance was dissolved in dimethyl sulfoxide (DMSO) to 10 mM and further diluted with DMSO to concentrations of 100-fold of the concentrations to be measured (100, 10, 1, 0.1, and 0.01 μM). Furthermore, the resultant was diluted with an assay buffer to 20-fold, thereby preparing a solution as a test substance solution. A solution prepared by diluting DMSO with an assay buffer to 20-fold was used as a negative control. A buffer containing 15 mM Tris-Cl (pH 7.5), 0.01 (v/v) % Tween-20, and 1 mM dithiothreitol was used as the assay buffer.
(§3) 2. Measurement of ROS Tyrosine Kinase Activity and JAK2 Tyrosine Kinase Activity:
(§4) The activity was measured by adopting the ELISA method. […] Finally, an ROS kinase or a JAK2 kinase (derived from humans, Carna Biosciences, Inc.) (diluted with the assay buffer to 0.25 nM) was added to the plate at 20 μL per well, and the resulting mixture was stirred. A reaction was performed at 30° C. for one hour. After the plate was washed 4 times with a washing buffer (50 mM Tris-Cl (pH 7.5), 150 mM NaCl, and 0.02 (v/v) % Tween-20), a blocking buffer (0.1% bovine serum albumin, 50 mM Tris-Cl (pH 7.5), 150 mM NaCl, and 0.02 (v/v) % Tween-20) was added to the plate at 150 μL per well, and incubated at 30° C. for 30 minutes. The blocking buffer was then removed, and a horse radish peroxidase-labeled anti-phosphorylated tyrosine antibody (BD Biosciences, Inc.) (diluted with the blocking buffer to 10,000-fold) was added to the plate at 100 μL per well, and the plate was incubated at 30° C. for 30 minutes. After the plate was washed 4 times with the washing buffer, a 3,3′,5,5′-tetramethylbenzidine solution (Sigma-Aldrich Co., Ltd.) was added to the plate at 100 μL per well to develop the color for 10 minutes. The reaction was stopped by adding 0.1 M sulfuric acid at 100 μL per well. An absorbance at 450 nm was measured with a microplate reader (Model 3550, manufactured by BIO-RAD, Benchmark, manufactured by BIO-RAD, or iMARK, manufactured by BIO-RAD).
(§5) 3. Analysis of Measurement Results:
(§6) A non-linear regression analysis was performed for the measured absorbance with an SAS system (SAS Institute Inc.), and a concentration of each of the test substances of inhibiting the ROS tyrosine kinase activity or JAK2 tyrosine kinase activity at 50% (IC50) was calculated. The inhibitory activity (IC50, nM) of each of the test substances against the ROS tyrosine kinase or JAK2 tyrosine kinase is shown in Tables 6 to 8.

ROS tyrosine kinase = biological target: T2, ROS tyrosine kinase (Homo sapiens, UniProt P08922); assay: ROS tyrosine kinase inhibitory activity test (ELISA); format: biochemical, humans; conditions: 25 μM ATP substrate solution, 30° C., one hour
T2 construct: purchased Carna Biosciences, Inc
T2 sequence (P08922 28-2347): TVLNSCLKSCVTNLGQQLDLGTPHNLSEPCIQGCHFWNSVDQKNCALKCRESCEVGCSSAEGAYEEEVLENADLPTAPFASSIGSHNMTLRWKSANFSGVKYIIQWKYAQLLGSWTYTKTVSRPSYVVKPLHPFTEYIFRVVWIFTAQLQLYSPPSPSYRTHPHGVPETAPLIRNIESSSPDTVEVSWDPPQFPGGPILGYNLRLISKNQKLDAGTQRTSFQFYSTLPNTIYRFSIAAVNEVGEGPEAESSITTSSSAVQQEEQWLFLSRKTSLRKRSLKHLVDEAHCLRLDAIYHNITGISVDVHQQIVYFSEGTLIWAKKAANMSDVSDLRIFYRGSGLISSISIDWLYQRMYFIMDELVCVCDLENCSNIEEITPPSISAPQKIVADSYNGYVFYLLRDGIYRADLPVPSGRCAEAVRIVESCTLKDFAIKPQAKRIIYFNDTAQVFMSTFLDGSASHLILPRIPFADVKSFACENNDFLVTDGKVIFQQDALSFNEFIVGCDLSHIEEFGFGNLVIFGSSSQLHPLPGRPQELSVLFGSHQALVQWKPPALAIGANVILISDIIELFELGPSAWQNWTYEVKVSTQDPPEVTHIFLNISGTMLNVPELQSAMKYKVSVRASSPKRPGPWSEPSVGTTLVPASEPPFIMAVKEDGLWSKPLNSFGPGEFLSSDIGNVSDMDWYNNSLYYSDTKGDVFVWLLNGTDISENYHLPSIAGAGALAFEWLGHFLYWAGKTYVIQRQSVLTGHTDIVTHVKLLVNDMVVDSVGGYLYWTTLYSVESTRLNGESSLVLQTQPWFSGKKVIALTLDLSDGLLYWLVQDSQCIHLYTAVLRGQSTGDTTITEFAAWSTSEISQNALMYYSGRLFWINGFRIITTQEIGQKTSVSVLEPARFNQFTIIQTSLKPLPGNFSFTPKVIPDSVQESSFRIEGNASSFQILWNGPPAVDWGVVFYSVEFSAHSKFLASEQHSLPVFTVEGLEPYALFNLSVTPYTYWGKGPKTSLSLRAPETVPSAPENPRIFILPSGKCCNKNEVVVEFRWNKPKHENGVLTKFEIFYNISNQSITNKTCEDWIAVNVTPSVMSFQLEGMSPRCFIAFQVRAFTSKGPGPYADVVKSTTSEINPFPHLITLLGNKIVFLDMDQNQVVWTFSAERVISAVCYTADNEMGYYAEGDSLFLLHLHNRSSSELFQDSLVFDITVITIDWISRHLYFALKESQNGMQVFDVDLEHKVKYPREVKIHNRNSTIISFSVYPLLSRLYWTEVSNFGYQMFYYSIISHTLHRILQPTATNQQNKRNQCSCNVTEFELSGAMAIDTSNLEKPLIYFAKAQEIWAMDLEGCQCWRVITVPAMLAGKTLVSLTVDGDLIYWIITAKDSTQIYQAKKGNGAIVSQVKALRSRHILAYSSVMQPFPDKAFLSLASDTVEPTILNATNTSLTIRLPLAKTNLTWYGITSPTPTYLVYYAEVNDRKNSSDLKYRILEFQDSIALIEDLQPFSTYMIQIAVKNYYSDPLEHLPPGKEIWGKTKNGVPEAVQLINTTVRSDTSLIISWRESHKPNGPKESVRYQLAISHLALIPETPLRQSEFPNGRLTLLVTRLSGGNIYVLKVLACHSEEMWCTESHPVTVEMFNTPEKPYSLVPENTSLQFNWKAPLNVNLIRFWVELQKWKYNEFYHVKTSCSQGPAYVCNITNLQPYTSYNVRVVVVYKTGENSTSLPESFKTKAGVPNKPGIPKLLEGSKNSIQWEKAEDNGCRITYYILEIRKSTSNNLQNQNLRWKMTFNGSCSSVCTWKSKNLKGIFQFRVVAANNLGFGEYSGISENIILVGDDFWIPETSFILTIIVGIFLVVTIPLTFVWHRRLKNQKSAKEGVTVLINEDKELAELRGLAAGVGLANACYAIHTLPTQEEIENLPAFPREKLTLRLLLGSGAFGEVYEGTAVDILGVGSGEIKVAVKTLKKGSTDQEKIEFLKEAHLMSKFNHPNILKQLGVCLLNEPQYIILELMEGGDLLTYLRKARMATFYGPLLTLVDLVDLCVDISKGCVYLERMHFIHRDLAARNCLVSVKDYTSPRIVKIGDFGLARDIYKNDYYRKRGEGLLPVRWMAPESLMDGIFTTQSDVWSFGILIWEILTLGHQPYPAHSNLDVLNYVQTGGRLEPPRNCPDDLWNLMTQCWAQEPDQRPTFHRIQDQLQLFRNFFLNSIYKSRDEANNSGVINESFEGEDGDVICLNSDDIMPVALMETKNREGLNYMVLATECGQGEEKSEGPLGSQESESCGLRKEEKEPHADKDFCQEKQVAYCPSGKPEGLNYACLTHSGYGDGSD
Experimental: as §1, §2, §3, §4, §5, §6

T1 sequence (O60674 whole entry): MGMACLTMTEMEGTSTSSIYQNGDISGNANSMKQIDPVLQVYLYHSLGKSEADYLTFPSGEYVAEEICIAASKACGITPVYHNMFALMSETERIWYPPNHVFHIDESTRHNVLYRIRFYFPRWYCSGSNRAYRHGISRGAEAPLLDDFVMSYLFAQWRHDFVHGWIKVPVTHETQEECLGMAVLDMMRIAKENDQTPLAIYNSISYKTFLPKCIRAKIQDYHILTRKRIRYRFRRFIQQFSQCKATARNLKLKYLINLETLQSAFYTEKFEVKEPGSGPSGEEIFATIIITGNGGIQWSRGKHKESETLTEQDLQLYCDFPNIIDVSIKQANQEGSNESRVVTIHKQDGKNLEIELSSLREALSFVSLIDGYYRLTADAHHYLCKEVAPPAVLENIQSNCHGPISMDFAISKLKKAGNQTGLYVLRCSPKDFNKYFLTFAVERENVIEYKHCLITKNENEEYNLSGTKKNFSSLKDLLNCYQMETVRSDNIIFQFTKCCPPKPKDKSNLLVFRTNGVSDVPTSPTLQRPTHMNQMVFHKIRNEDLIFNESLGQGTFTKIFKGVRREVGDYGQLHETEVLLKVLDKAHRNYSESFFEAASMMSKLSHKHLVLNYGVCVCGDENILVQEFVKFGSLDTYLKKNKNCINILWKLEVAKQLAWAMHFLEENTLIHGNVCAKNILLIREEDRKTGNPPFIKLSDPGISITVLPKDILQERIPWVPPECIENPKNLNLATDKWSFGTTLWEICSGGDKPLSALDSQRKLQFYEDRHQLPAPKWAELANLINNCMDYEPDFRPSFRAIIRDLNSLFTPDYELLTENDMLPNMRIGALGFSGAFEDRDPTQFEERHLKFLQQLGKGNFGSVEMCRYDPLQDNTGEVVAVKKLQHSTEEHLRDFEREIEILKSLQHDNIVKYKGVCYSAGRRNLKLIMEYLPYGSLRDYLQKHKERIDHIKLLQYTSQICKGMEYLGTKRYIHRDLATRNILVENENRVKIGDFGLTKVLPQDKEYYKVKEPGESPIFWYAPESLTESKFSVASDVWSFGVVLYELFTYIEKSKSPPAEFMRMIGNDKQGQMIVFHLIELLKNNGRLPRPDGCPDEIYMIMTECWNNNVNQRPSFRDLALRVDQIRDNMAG

Row | SMILES | IC50 (JAK2 tyrosine kinase) [nM] | IC50 (ROS tyrosine kinase) [nM]
1 | Cc1cccc(C2CCCN2c2cncc(Nc3ncc(C#N)s3)n2)c1 (stereo not shown) [Example 46, 2-({6-[2-(3-Methylphenyl)pyrrolidin-1-yl]pyrazin-2-yl}amino)-1,3-thiazole-5-carbonitrile] | 280 | 6.4
2 | Cc1ccccc1C1CCCN1c1cncc(Nc2ncc(C#N)s2)n1 (stereo not shown) [Example 47, 2-({6-[2-(2-Methylphenyl)pyrrolidin-1-yl]pyrazin-2-yl}amino)-1,3-thiazole-5-carbonitrile] | 280 | 17
3 | COc1c(Nc2ncc(C#N)s2)nc(N2CCCC2c2ccc(C)cc2)nc1-c1cccnc1F (stereo not shown) [Example 49, 2-({6-(2-Fluoropyridin-3-yl)-5-methoxy-2-[2-(4-methylphenyl)pyrrolidin-1-yl]pyrimidin-4-yl}amino)-1,3-thiazole-5-carbonitrile] | > 1000 | 52
4 | Cc1ccc(C2CCCN2c2nc(C)c(C)c(Nc3ncc(C#N)s3)n2)cc1 (stereo not shown) [Example 52, 2-({5,6-Dimethyl-2-[2-(4-methylphenyl)pyrrolidin-1-yl]pyrimidin-4-yl}amino)-1,3-thiazole-5-carbonitrile] | 170 | 1.8
5 | Cc1cc(-c2ncc(N3CCCC3c3ccc(F)cc3)nc2Nc2ncc(C#N)s2)ccn1 (stereo not shown) [Example 53, 2-({6-[2-(4-Fluorophenyl)pyrrolidin-1-yl]-3-(2-methylpyridin-4-yl)pyrazin-2-yl}amino)-1,3-thiazole-5-carbonitrile] | > 1000 | 67
6 | COCCn1cc(-c2nc(N3CCC[C@H]3c3ccc(C)cc3)nc(Nc3ncc(C#N)s3)c2OC)cn1 [Example 58, 2-({5-Methoxy-6-[1-(2-methoxyethyl)-1H-pyrazol-4-yl]-2-[(2S)-2-(4-methylphenyl)pyrrolidin-1-yl]pyrimidin-4-yl}amino)-1,3-thiazole-5-carbonitrile] | 240 | 2.2
7 | Cc1ccc([C@@H]2CCCN2c2cc(C(N)=O)c(C3CC3)c(Nc3ncc(C#N)s3)n2)cc1 [Example 66, 2-[(5-Cyano-1,3-thiazol-2-yl)amino]-3-cyclopropyl-6-[(2S)-2-(4-methylphenyl)pyrrolidin-1-yl]pyridine-4-carboxamide] | 910 | 0.84
8 | Cc1ccc(C2CCCN2c2nc3c(c(Nc4ncc(C#N)s4)n2)CN(S(C)(=O)=O)CC3)cc1 (stereo not shown) [Example 72, 2-({2-[2-(4-Methylphenyl)pyrrolidin-1-yl]-6-(methylsulfonyl)-5,6,7,8-tetrahydropyrido[4,3-d]pyrimidin-4-yl}amino)-1,3-thiazole-5-carbonitrile] | > 1000 | 97
